In patent publication US11634447B2 (priority 2012, dated 2023):
Several values for one entry are separate records, joined by “and”; a condition that tells them apart may be missing. Equal entries are not always repeated.

tested on: bacterial strain LF82 binding to the glycoprotein BSA-(Mannose)3; assay: Bacterial Binding Assay (BBA); assay type: cell-based, Escherichia coli; conditions: read-out: Bacterial Binding Assay IC50, LF82/Luciferase strain binding to BSA-(Man)3 coated plates, luminescence
Outline: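 Inhibition of LF82/luciferase E. coli adhesion is read as luminescence after washing off unbound cells. Compound and bacteria (10^7 per well) are co-incubated 40-75 min at room temperature on wells coated with 0.5-2 μg/mL BSA-(Man)3, with BSA-only wells as background; IC50 values derived.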

Row | Structure (SMILES) | IC50 [nM]
1 | CC(C)(C)C(=O)N1CCC2(CC1)c1cc(C#C[C@H]3O[C@H](CO)[C@@H](O)[C@H](O)[C@@H]3O)ccc1-c1ccc(C#C[C@H]3O[C@H](CO)[C@@H](O)[C@H](O)[C@@H]3O)cc12 [Compound 228, 1-[2,7-bis[2-[(2R,3S,4R,5S,6R)-3,4,5-trihydroxy-6-(hydroxymethyl)tetrahydropyran-2-yl]ethynyl]spiro[fluorene-9,4piperidine]-1yl]-2,2-dimethyl-propan-l-one] | 0.44
2 | CN(C)C(=O)Cn1c2cc(C#C[C@H]3O[C@H](CO)[C@@H](O)[C@H](O)[C@@H]3O)ccc2c2ccc(C#C[C@H]3O[C@H](CO)[C@@H](O)[C@H](O)[C@@H]3O)cc21 [Compound 181, 2-[2,7-bis[2-[(2R,3S,4R,5S,6R)-3,4,5-trihydroxy-6-(hydroxymethyl)tetrahydropyran-2-yl]ethynyl]carbazol-9-yl]-N,N-dimethyl-acetamide] | 10
3 | OC[C@H]1O[C@H](C#Cc2coc(C#C[C@H]3O[C@H](CO)[C@@H](O)[C@H](O)[C@@H]3O)n2)[C@@H](O)[C@@H](O)[C@@H]1O [Compound 129, (2R,3S,4R,5S,6R)-2-(hydroxymethyl)-6-[2-[2-[2-[(2R,3S,4R,5S,6R)-3,4,5-trihydroxy-6-(hydroxymethyl)tetrahydropyran-2-yl]ethynyl]oxazol-4-yl]ethynyl]tetrahydropyran-3,4,5-triol] | 1240
4 | OC[C@H]1O[C@H](C#Cc2ccc3c(c2)C2(SCCCS2)c2cc(C#C[C@H]4O[C@H](CO)[C@@H](O)[C@H](O)[C@@H]4O)ccc2-3)[C@@H](O)[C@@H](O)[C@@H]1O [Compound 191] | 0.36

target: T1, FimH-CRD (Escherichia coli, UniProt P08191); assay: Competitive binding assay by fluorescence polarization, assay 1 (compounds prepared by manual dilution); set-up: species or system E. coli; conditions: Assay 1 Kd, 5 nM Alexa 647 mannoside probe, 60 nM FimH-CRD, replicate values in one cell
T1 construct: The first 177 amino acids of the FimH protein are expressed as a fusion protein; thrombin tag (printed as 'fusion protein with thrombin') (cleaved yes); made in house; host or cells: bacteria (pET21b plasmid)
T1 sequence (P08191 22-177): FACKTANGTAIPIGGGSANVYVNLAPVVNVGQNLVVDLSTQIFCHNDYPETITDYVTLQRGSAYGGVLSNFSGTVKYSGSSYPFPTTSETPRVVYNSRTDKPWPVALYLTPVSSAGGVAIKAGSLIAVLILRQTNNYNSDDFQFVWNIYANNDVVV
Protocol: The first 177 amino acids of the FimH protein are expressed as a fusion protein with thrombin in a pET21b plasmid in bacteria. This FimH protein sequence contains the carbohydrate recognition domain (CRD) and shall be termed FimH-CRD. Following bacterial expression of the protein, the FimH-CRD protein is purified to homogeneity and the thrombin tag removed by protease cleavage. A competitive binding assay by fluorescence polarization is performed using 5 nM of the Alexa 647 mannoside probe and 60 nM of the FimH-CRD. The samples are assayed in a low volume 384 well microtiter plate in a final volume of 20 μl. The final assay buffer conditions are the following, 50 mM Tris-Cl, ph 7.0, 100 mM NaCl, 1 mM EDTA, 5 mM β-mercaptoethanol, 0.05% BSA and 2.5% DMSO. Two assays are performed for FimH, termed assay 1 or assay 2. The assay conditions are the same for both assays except the following: assay 1 has compounds prepared by manual dilution in a serial dilution factor with 12-point dose response while assay 2 has compounds prepared by a robotics system also through a serial dilution factor (12 point dose response) and initially prepared in duplicate in 384 well-Corning polypropylene round bottom plates. The assay 2 plates have compound which is then frozen and must be thawed prior to use. Initially the Alexa 647 probe and the FimH-CRD are added to the assay buffer and then 0.5 μl of test compound (assay 1 or 2) between 0.4 nM to 75 μM final concentration are added (12 point titration with 3-fold serial dilution). Control wells for the Alexa 647 probe are prepared with the same conditions except for the addition of the FimH-CRD protein. Plates are then incubated for 5 hrs at room temperature in the dark and under humid conditions to prevent drying. Plates are read using the SpectraMax Paradigm multi-mode plate reader and the appropriate fluorescent polarization detection cartridge (Alexa-647).
Alexa 647 mannoside probe is prepared using the similar procedure reported for FAM mannoside (Han, Z. et. al., 2010, J. Med. Chem., 53, 4779) and is described in the scheme below.
To a blue colored stirred solution of (2S,3S,4S,5S,6R)-2-(4-aminobutoxy)-6-(hydroxymethyl)tetrahydropyran-3,4,5-triol (2.21 mg, 0.009 mmol) and the (2E)-2-[(2E,4E)-5-[3,3-dimethyl-5-sulfonato-1-(3-sulfonatopropyl)indol-1-ium-2-yl]penta-2,4-dienylidene]-3-[6-(2,5-dioxopyrrolidin-1-yl)oxy-6-oxo-hexyl]-3-methyl-1-(3-sulfonatopropyl)indoline-5-sulfonate (Potassium Ion (3)) (4.9 mg, 0.0044 mmol) in DMF (44 μL) is added Et3N (5.4 mg, 7.0 μL, 0.053 mmol) at RT. The solution is stirred at room temperature over night, concentrated, dissolved in water and purified on 12 g C-18 silica gel cartridge on Isolera system using acetonitrile in water (0 to 40%, 10 CV) and followed by lyophilization to afford Alexa 647 mannoside probe (3.3 mg, 34%) as deep blue solid.
The Kd values of the compounds are determined from dose response curves using twelve concentrations per compound in duplicate. Curves are fitted to data points using Fluorescence Polarization competitive displacement analysis, and Kds are interpolated from the resulting curves using GraphPad Prism software, version […] (GraphPad software Inc., San Diego, Calif., USA).

Row | Structure (SMILES) | Kd
5 | C#CCN(Cc1cn([C@H]2O[C@H](CO)[C@@H](O)[C@H](O)[C@@H]2O)nn1)Cc1cn([C@H]2O[C@H](CO)[C@@H](O)[C@H](O)[C@@H]2O)nn1 [Compound 20] | 58 nM and 96 nM
6 | O=C(NCCOCCOCCNC(=O)c1cccc([C@H]2O[C@H](CO)[C@@H](O)[C@H](O)[C@@H]2O)c1)c1cccc([C@H]2O[C@H](CO)[C@@H](O)[C@H](O)[C@@H]2O)c1 [Compound 15, (R,R,S,R,S)-N,N′-((Ethane-1,2-diylbis(oxy))bis(ethane-2,1-diyl))bis(3-((2R,3S,4R,5S,6R)-3,4,5-trihydroxy-6-(hydroxymethyl)tetrahydro-2H-pyran-2-yl)benzamide)] | 11 nM and 15 nM
7 | OC[C@H]1O[C@H](c2ccc(-c3cn([C@H]4O[C@H](CO)[C@@H](O)[C@H](O)[C@@H]4O)nn3)cc2)[C@@H](O)[C@@H](O)[C@@H]1O [Compound 21, ((2R,3S,4R,5S,6R)-2-(Hydroxymethyl)-6-(4-(1-((2S,3S,4S,5S,6R)-3,4,5-trihydroxy-6-(hydroxymethyl)tetrahydro-2H-pyran-2-yl)-1H-1,2,3-triazol-4-yl)phenyl)tetrahydro-2H-pyran-3,4,5-triol)] | < 5 nM (2×) and 9 nM
8 | OC[C@H]1O[C@H](C/C=C/c2ccc(C#Cc3ccc([C@H]4O[C@H](CO)[C@@H](O)[C@H](O)[C@@H]4O)cc3)cc2)[C@@H](O)[C@@H](O)[C@@H]1O [Compound 34, ((2R,3 S,4R,5S,6R)-2-(Hydroxymethyl)-6-[(E)-3-[4-[2-[4-[(2R,3S,4R,5S,6R)-3,4,5-trihydroxy-6-(hydroxymethyl)tetrahydropyran-2-yl]phenyl]ethynyl]phenyl]allyl]tetrahydropyran-3,4,5-triol)] | < 5 nM and 6 nM
9 | OC[C@H]1O[C@H](n2cc(-c3ccc(-c4cn([C@H]5O[C@H](CO)[C@@H](O)[C@H](O)[C@@H]5O)nn4)cc3)nn2)[C@@H](O)[C@@H](O)[C@@H]1O [Compound 18, ((2R,3S,4S,5S,6S)-2-(Hydroxymethyl)-6-[4-[4-[1-[(2S,3S,4S,5S,6R)-3,4,5-trihydroxy-6-(hydroxymethyl)tetrahydropyran-2-yl]triazol-4-yl]phenyl]triazol-1-yl]tetrahydropyran-3,4,5-triol)] | 1060 nM and 1020 nM
10 | O=C(NCCCCCCNC(=O)c1cccc([C@H]2O[C@H](CO)[C@@H](O)[C@H](O)[C@@H]2O)c1)c1cccc([C@H]2O[C@H](CO)[C@@H](O)[C@H](O)[C@@H]2O)c1 [Compound 12, (R,R,S,R,S)-N,N′-(Hexane-1,6-diyl)bis(3-((2R,3S,4R,5S,6R)-3,4,5-trihydroxy-6-(hydroxymethyl)tetrahydro-2H-pyran-2-yl)benzamide)] | 14 nM and 18 nM
11 | OC[C@H]1O[C@H](c2ccc(-n3cc([C@H]4O[C@H](CO)[C@@H](O)[C@H](O)[C@@H]4O)nn3)cc2)[C@@H](O)[C@@H](O)[C@@H]1O [Compound 36, ((2R,3S,4R,5S,6R)-2-(Hydroxymethyl)-6-[4-[4-[(2R,3S,4R,5S,6R)-3,4,5-trihydroxy-6-(hydroxymethyl)tetrahydropyran-2-yl]triazol-1-yl]phenyl]tetrahydropyran-3,4,5-triol)] | 6 nM and 14 nM and < 5 nM
12 | Cc1cc(/C=C/C[C@H]2O[C@H](CO)[C@@H](O)[C@H](O)[C@@H]2O)cc(C)c1/C=C/C[C@H]1O[C@H](CO)[C@@H](O)[C@H](O)[C@@H]1O [Compound 31, ((2R,3S,4R,5S,6R)-2-[(E)-3-[3,5-Dimethyl-4-[(E)-3-((2R,3S,4R,5S,6R)-3,4,5-trihydroxy-6-(hydroxymethyl)tetrahydropyran-2-yl]prop-1-enyl]phenyl]allyl]-6-(hydroxymethyl)tetrahydropyran-3,4,5-triol)] | < 5 nM
13 | OC[C@H]1O[C@H](Oc2cccc([C@H]3O[C@H](CO)[C@@H](O)[C@H](O)[C@@H]3O)c2)[C@@H](O)[C@@H](O)[C@@H]1O [Compound 17, ((2R,3S,4R,5S,6R)-2-(Hydroxymethyl)-6-[3-[(2R,3S,4S,5S,6R)-3,4,5-trihydroxy-6-(hydroxymethyl)tetrahydropyran-2-yl]oxyphenyl]tetrahydropyran-3,4,5-triol)] | < 5 nM and 6 nM
14 | O=C(NCCCCNC(=O)c1cccc([C@H]2O[C@H](CO)[C@@H](O)[C@H](O)[C@@H]2O)c1)c1cccc([C@H]2O[C@H](CO)[C@@H](O)[C@H](O)[C@@H]2O)c1 [Compound 10, (R,R,S,R,S)-N,N′-(Butane-1,4-diyl)bis(3-((2R,3S,4R,5S,6R)-3,4,5-trihydroxy-6-(hydroxymethyl)tetrahydro-2H-pyran-2-yl)benzamide)] | 9 nM and 15 nM
15 | O=C(Nc1ccc([C@H]2O[C@H](CO)[C@@H](O)[C@H](O)[C@@H]2O)cc1)c1cccc([C@H]2O[C@H](CO)[C@@H](O)[C@H](O)[C@@H]2O)c1 [Compound 39, (3-[(2R,3S,4R,5S,6R)-3,4,5-Trihydroxy-6-(hydroxymethyl)tetrahydropyran-2-yl]-N-[4-[(2R,3S,4R,5S,6R)-3,4,5-trihydroxy-6-(hydroxymethyl)tetrahydropyran-2-yl]phenyl]benzamide)] | 29 nM and 46 nM
16 | O=C(Nc1ccc(NC(=O)c2cccc([C@H]3O[C@H](CO)[C@@H](O)[C@H](O)[C@@H]3O)c2)cc1)c1cccc([C@H]2O[C@H](CO)[C@@H](O)[C@H](O)[C@@H]2O)c1 [Compound 7, (3-[(2R,3S,4R,5S,6R)-3,4,5-Trihydroxy-6-(hydroxymethyl)tetrahydropyran-2-yl]-N-[4-[[3-[(2R,3S,4R,5S,6R)-3,4,5-trihydroxy-6-(hydroxymethyl)tetrahydropyran-2-yl]benzoyl]amino]phenyl]benzamide)] | 17 nM and 11 nM

same assay, conditions: read-out: Assay 1 Kd, 5 nM Alexa 647 mannoside probe, 60 nM FimH-CRD, replicate values in one cell

Row | Structure (SMILES) | Kd [nM]
17 | Cc1cc(/C=C/C[C@H]2O[C@H](CO)[C@@H](O)[C@H](O)[C@@H]2O)cc(C)c1/C=C/C[C@H]1O[C@H](CO)[C@@H](O)[C@H](O)[C@@H]1O [Compound 31, ((2R,3S,4R,5S,6R)-2-[(E)-3-[3,5-Dimethyl-4-[(E)-3-((2R,3S,4R,5S,6R)-3,4,5-trihydroxy-6-(hydroxymethyl)tetrahydropyran-2-yl]prop-1-enyl]phenyl]allyl]-6-(hydroxymethyl)tetrahydropyran-3,4,5-triol)] | < 5
